Data: patent publication US20200368193A1 (Concert Pharmaceuticals, Inc., priority 2017, published 2020)
Where two headings read alike, the source gives them in different places.

How the values were obtained:
[1] = Cortex versus plasma half-life of Compound 100 after 4 days of 100 mg/kg PO dosing (Example 11); type: in vivo, male Sprague-Dawley rats; conditions: male, Sprague-Dawley, rat, 100 mg/kg PO once per day for 4 days
Procedure: After 4 days, tissues from perfused brain and plasma were collected and analyzed by LC-MS at 24 hours (group 1), 72 hours (group 2) and 120 hours (group 3) after dosing.

[2] = Brain distribution of Compound 100 after a single 100 mg/kg PO dose (Example 10); type: in vivo, male Sprague-Dawley rats; conditions: male, Sprague-Dawley, rat, mean
Procedure: The distribution profile of Compound 100 was investigated in male Sprague-Dawley rats. […] At 24 hours after dosing, tissues from perfused brain and plasma were collected and analyzed by LC-MS.

Male Sprague-Dawley Rats [3] = experiment: Nephrotoxicity of Compound 100 and non-deuterated D-serine at 150 mg/kg PO (Example 3); type: in vivo
Source text: (§1) The pharmacokinetic profile of Compound 100 was investigated in male Sprague-Dawley rats compared with that of non-deuterated D-serine. […] Plasma was collected and analyzed for Compound 100 and non-deuterated D-Serine. Additional blood was collected and analyzed for the full clinical chemistry profile.

[4] = Plasma, hippocampus and cortex concentration of Compound 100 after a 30 mg/kg PO dose (Example 1); type: in vivo, male Sprague Dawley rats; conditions: male, Sprague-Dawley, rat, mean
Procedure: The mean plasma, hippocampus, and cortex concentrations at 1 hour were 19200 ng/mL, 674 ng/g, and 754 ng/g, respectively. The mean plasma, hippocampus, and cortex concentrations at 6 hours were 1780 ng/mL, 1385 ng/g, and 936 ng/g, respectively.

[5] = biological target: T1, human NMDAR subunits GluN1 and GluN2A (Homo sapiens, UniProt Q05586); experiment: NMDA receptor activation in automated patch clamp system (ScreenPatch); type: cell-based; conditions: HEK293 cells, 0.003 to 10 μM, Compound 100 versus d-serine
T1 construct: expressed in transfected cells; host or cells: HEK293
Procedure: Peak current and steady state current were measured. The activity at the NMDA receptor was indistinguishable for the two compounds.

[6] = Pharmacokinetics of deuterated and non-deuterated D-serine, PO 10 mg/kg (Example 5); type: in vivo, male Sprague Dawley rats; conditions: male, Sprague Dawley, rat, plasma, 0.5% Methylcellulose
Procedure: Three rats were used for each group. Blood was collected at the following time points: for IV dosing: pre-dose, 0.05, 0.167, 0.5, 1, 2, 4, 6, 8 and 12 hours post-dose; for PO dosing: pre-dose, 0.25, 0.5, 1, 2, 4, 6, 8 and 12 hours post-dose PO. Urine was collected at pre-dose (minimum 12 hours), 0-6, 6-12 and 12-24 hours. Plasma samples were analyzed and quantified for dosed compound LC-MS/MS.

[7] = Pharmacokinetic profile of Compound 100 and non-deuterated D-serine after 150 mg/kg PO doses (Example 3); type: in vivo, male Sprague-Dawley rats; conditions: for concentration at 4 h / concentration at 8 h / concentration at 24 h / AUC(0-inf) / Cmax / Tmax: male, Sprague-Dawley, rat; for concentration at 4 h / concentration at 8 h / concentration at 24 h: po
Source text: as §1

rats = experiment: Nephrotoxicity comparison at doses from 150 mg/kg to 750 mg/kg (dose escalation, FIGS. 7-10); type: in vivo; conditions: for changes in BUN or creatinine: PO doses from 150 mg/kg to 750 mg/kg
Male Sprague-Dawley Rats [8] = experiment: Nephrotoxicity of non-deuterated D-serine at 300 mg/kg PO (Example 2); type: in vivo
Procedure: (§2) The hippocampus, cortex and plasma were collected and analyzed. Additional blood was collected and were analyzed for the full clinical chemistry profile. Urine was also collected and examined for glucose and total protein. […] The mean plasma, hippocampus, and cortex concentration at 1 hour are 19200 ng/mL, 674 ng/g, and 754 ng/g; respectively. The mean plasma, hippocampus, and cortex concentrations at 8 hours were 11250 ng/mL, 17725 ng/g, and 11875 ng/g, respectively. […] Blood urea nitrogen and creatinine levels were elevated.

[9] = Pharmacokinetics of non-deuterated D-serine after a 300 mg/kg PO dose (Example 2); type: in vivo, Male Sprague-Dawley Rats; conditions: male, Sprague-Dawley, rat; for concentration at 1 h: oral, 300 mg/kg, 1 hour (in Example 2); for concentration at 1 h / concentration at 8 h: mean
Procedure: as §2

[10] = Pharmacokinetics dose response of non-deuterated D-serine, 30-300 mg/kg PO (Example 4); type: in vivo, male Sprague-Dawley rats; conditions: plasma; for Cmax / AUC(0-inf): (CV %)
Source text: (§3) The pharmacokinetic profile of non-deuterated D-serine was investigated in male Sprague-Dawley rats. […] Plasma was collected and analyzed for the non-deuterated D-serine. Additional blood was collected and analyzed for the full clinical chemistry profile.

Male Sprague-Dawley Rats [11] = experiment: Nephrotoxicity dose response of non-deuterated D-serine, 30-300 mg/kg PO (Example 4); type: in vivo; conditions: 24 hr samples at the 150 and 300 mg/kg doses, compared to control and reference values
Source text: as §3

[12] = cortex, read-out: Cortex concentration
[13] = hippocampus, read-out: Hippocampus concentration
[14] = plasma, read-out: Plasma concentration
[15] = cortex, 150 mg/kg, mean, read-out: Cortex concentration
[16] = hippocampus, 150 mg/kg, mean, read-out: Hippocampus concentration
[17] = plasma, 150 mg/kg, mean, read-out: Plasma concentration
[18] = dose escalation 150 mg/kg to 750 mg/kg
[19] = serum, D-serine at 24 hr, Compound 100 at 4, 8, and 24 hours

[2H][C@@](N)(CO)C(=O)O [Compound 100, (2R)-2-amino-2-deutero-3-hydroxy-propanoic acid]
half-life ([1]; cortex, read-out: half-life (T1/2) in the cortex (converted)): ~48 h
half-life ([1]; plasma, read-out: plasma T1/2): < 12 h
concentration at 24 h ([2]; brain stem, perfused brain, read-out: brain stem concentration): 721 ng/g
concentration at 24 h ([2]; cerebellum, perfused brain, read-out: cerebellum concentration): 290 ng/g
concentration at 24 h ([2]; cortex, perfused brain, read-out: cortex concentration): 4660 ng/g
concentration at 24 h ([2]; plasma, read-out: plasma concentration): 880 ng/mL
levels of biomarkers of nephrotoxicity (Male Sprague-Dawley Rats [3]): did not increase
concentration at 1 h [4, 12]: 754 ng/g
concentration at 6 h [4, 12]: 936 ng/g
concentration at 1 h [4, 13]: 674 ng/g
concentration at 6 h [4, 13]: 1380 ng/g
concentration at 1 h [4, 14]: 19200 ng/mL
concentration at 6 h [4, 14]: 1780 ng/mL
activity at the NMDA receptor (peak current and steady state current) [5]: indistinguishable
AUC(0-inf) [6]: 21.5 µg·h/mL
Cmax [6]: 11400 ng/mL
Tmax [6]: 25 min
half-life [6]: 160 min
concentration at 4 h [7, 15]: 5070 ng/g
concentration at 8 h [7, 15]: 4040 ng/g
concentration at 24 h ([7]; cortex, 150 mg/kg, mean, 24 hr, read-out: Cortex concentration): 2420 ng/g
concentration at 4 h [7, 16]: 6160 ng/g
concentration at 8 h [7, 16]: 4340 ng/g
concentration at 24 h ([7]; hippocampus, 150 mg/kg, mean, 24 hr, read-out: Hippocampus concentration): 4200 ng/g
AUC(0-inf) ([7]; plasma): 383 µg·h/mL
Cmax ([7]; plasma): 186000 ng/mL
Tmax ([7]; plasma): 40 min
concentration at 4 h [7, 17]: 23300 ng/mL
concentration at 8 h [7, 17]: 2040 ng/mL
concentration at 24 h ([7]; plasma, 150 mg/kg, mean, 24 hr, read-out: Plasma concentration): 711 ng/mL
Hippocampus concentration ([7]; mean, 24 hr, 150 mg/kg): 4220 ng/g
changes in BUN or creatinine (rats): minimal changes
exposure as measured by AUC and Cmax, versus non-deuterated D-serine (rats; [18]): greater
gross signs of nephrotoxicity (rats; [18]): not

N[C@H](CO)C(=O)O [Non-deuterated D-Serine, D-serine]
Blood urea nitrogen level (Male Sprague-Dawley Rats [8]): elevated
creatinine level (Male Sprague-Dawley Rats [8]): elevated
glucose in urine (Male Sprague-Dawley Rats [8]): presence of glucose was observed
concentration at 1 h [9, 12]: 754 ng/g
concentration at 8 h ([9]; cortex, 300 mg/kg PO, read-out: Cortex concentration): 11900 ng/g
concentration at 1 h [9, 13]: 674 ng/g
concentration at 8 h ([9]; hippocampus, 300 mg/kg PO, read-out: Hippocampus concentration): 17700 ng/g
concentration at 1 h [9, 14]: 19200 ng/mL
concentration at 8 h ([9]; plasma, 300 mg/kg PO, endogenous level subtracted, read-out: Plasma concentration): 11200 ng/mL
AUC(0-inf) ([9]; plasma, 300 mg/kg PO): 500 µg·h/mL
Cmax ([9]; plasma, 300 mg/kg PO): 268000 ng/mL
Tmax ([9]; plasma, 300 mg/kg PO): 30 min
half-life ([9]; plasma, 300 mg/kg PO): 218 min
levels of biomarkers of nephrotoxicity (Male Sprague-Dawley Rats [3]): caused an increase
blood urea nitrogen (BUN) level (Male Sprague-Dawley Rats [3]; serum, D-serine at 8 hr and 24 hr, Compound 100 at 4, 8, and 24 hours): Elevated levels
creatinine level (Male Sprague-Dawley Rats [3]; [19]): Elevated levels
gamma glutamyl transferase (GGT) level (Male Sprague-Dawley Rats [3]; [19]): Elevated levels
Tmax ([10]; male, Sprague-Dawley, rat, po, 30 mg/kg, 30 mg/kg PO): 30 min
Cmax ([10]; male, Sprague-Dawley, rat, po, 30 mg/kg, 30 mg/kg PO, read-out: Cmax): 24300 ng/mL
Tmax ([10]; male, Sprague-Dawley, rat, po, 75 mg/kg, 75 mg/kg PO): 30 min
Cmax ([10]; male, Sprague-Dawley, rat, po, 75 mg/kg, 75 mg/kg PO, read-out: Cmax): 54300 ng/mL
Tmax ([10]; male, Sprague-Dawley, rat, po, 100 mg/kg, 100 mg/kg PO): 30 min
Cmax ([10]; male, Sprague-Dawley, rat, po, 100 mg/kg, 100 mg/kg PO, read-out: Cmax): 96100 ng/mL
Tmax ([10]; male, Sprague-Dawley, rat, po, 150 mg/kg, 150 mg/kg PO): 18 min
Cmax ([10]; male, Sprague-Dawley, rat, po, 150 mg/kg, 150 mg/kg PO, read-out: Cmax): 180000 ng/mL
Tmax ([10]; male, Sprague-Dawley, rat, po, 300 mg/kg, 300 mg/kg PO): 30 min
Cmax ([10]; male, Sprague-Dawley, rat, po, 300 mg/kg, 300 mg/kg PO, read-out: Cmax): 216000 ng/mL
Tmax ([10]; male, Sprague-Dawley, rat, po, 300 mg/kg, all doses 30, 75, 100, 150, and 300 mg/kg PO): 18 to 30 min
AUC(0-inf) ([10]; male, Sprague-Dawley, rat, 30 mg/kg PO): 50.6 µg·h/mL
AUC(0-inf) ([10]; male, Sprague-Dawley, rat, 75 mg/kg PO): 148 µg·h/mL
AUC(0-inf) ([10]; male, Sprague-Dawley, rat, 100 mg/kg PO): 246 µg·h/mL
AUC(0-inf) ([10]; male, Sprague-Dawley, rat, 150 mg/kg PO): 349 µg·h/mL
AUC(0-inf) ([10]; male, Sprague-Dawley, rat, 300 mg/kg PO): 911 µg·h/mL
Cmax ([10]; 300 mg/kg PO, 300 mg/kg): 261000 (32.3%) ng/mL
creatine level (Male Sprague-Dawley Rats [11]): Elevated levels
gamma glutamyl transferase (GGT) level (Male Sprague-Dawley Rats [11]): Elevated levels
urea nitrogen level (Male Sprague-Dawley Rats [11]): Elevated levels
activity at the NMDA receptor (peak current and steady state current) [5]: indistinguishable
AUC(0-inf) [6]: 13.2 µg·h/mL
Cmax [6]: 8780 ng/mL
Tmax [6]: 25 min
half-life [6]: 106 min
AUC(0-inf) ([7]; plasma): 349 µg·h/mL
Cmax ([7]; plasma): 180000 ng/mL
Tmax ([7]; plasma): 20 min
changes in BUN or creatinine (rats): increasingly elevated levels
gross signs of nephrotoxicity (rats; [18]): observed
